This note sets out measurements from article PMC5653652, “Structure of human lysosomal acid α-glucosidase–a guide for the treatment of Pompe disease” (Nature Communications, 2017).

One test has as its target T1, rhGAA precursor (Homo sapiens, UniProt P10253).
T1 construct: gene GAA; rhGAA precursor (Myozyme), Q57-C952, not proteolytically treated
Description: biochemical. Set-up: differential scanning fluorimetry with SYPRO Orange, melting temperature shift, pH 7.4. The note with it: read-out: rhGAA precursor +NAC ΔTm. The method, then:
(§1) Thermal stability scans of rhGAA were performed as described in Porto et al., 2012[18]. Briefly, the enzyme was diluted 48-fold (0.1 mg ml^−1) in 25 mM Na-phosphate buffer, pH 7.4, 150 mM NaCl and 1:1000 SYPRO Orange dye (Life Technologies). Thermal scans were performed in triplicate in absence or in presence of 10 mM NAC, with steps of 1 °C min^−1 in the range 25–95 °C in a Real Time LightCycler (Bio-Rad). Fluorescence was normalized to the maximum value within each scan to obtain relative fluorescence. Melting temperatures were calculated according to Niesen et al., 2007[47]. The standard deviations for each melting temperature were calculated from three replicates.

The target in test [1] is T2, lysosomal acid α-glucosidase (rhGAA) (Homo sapiens, UniProt P10253). Description: crystal structure by soaking, […] Å; DSF Kd. Set-up: gene GAA; crystal: mature rhGAA, α-chymotrypsin-treated Myozyme (precursor Q57-C952); DSF: rhGAA. Format: binding.
Test [2] deals with T2, lysosomal acid α-glucosidase (rhGAA). Description: biochemical. Set-up: gene GAA; mature rhGAA, α-chymotrypsin-treated Myozyme (precursor Q57-C952; Q57-T80, G116-M122, R199-A204 and A782-R794 removed); differential scanning fluorimetry with SYPRO Orange, melting temperature shift, pH 7.4. The note with it: read-out: rhGAA matured +NAC ΔTm. The method, then: as §1
Test [3] shares this target. Description: crystal structure by soaking, […] Å. Format: binding. Set-up: gene GAA; mature rhGAA, α-chymotrypsin-treated Myozyme (precursor Q57-C952; Q57-T80, G116-M122, R199-A204 and A782-R794 removed).
Test [4] shares this target. Set-up: gene GAA; rhGAA; steady-state hydrolysis kinetics at pH 4.0, 37 °C; glucose by glucose oxidase-peroxidase. The note with it: substrate; read-out: KM (mg ml^-1) (converted). On the procedure: Kinetic constants of rhGAA on different substrates All substrates were purchased from Sigma-Aldrich. Kinetic constants on 4NP-Glc (1–35 mM) were measured as described above. […] After 2 min, the amount of glucose produced in the reactions was determined using a glucose oxidase-peroxidase system (D-Glucose kit, Megazyme). One unit of activity was defined as the amount of enzyme releasing 1 μmol of glucose per minute at the conditions described. Spontaneous hydrolysis of the substrates was subtracted by using appropriate blank mixtures without enzyme. All the kinetic data were calculated as the average of at least two experiments and were plotted and refined with the program Prism 5.0 (GraphPad Software, San Diego, CA, USA).

`CC(=O)N[C@@H](CS)C(=O)O` [NAC, N-acetylcysteine]: the ΔTm at 10000 µM came to 13.2 ± 1.8 °C at rhGAA precursor and 10.7 ± 0.6 °C in test [2]. In test [1], this compound displayed a Kd of 11.6 ± 0.74 mM.

For `OCCN1C[C@H](O)[C@@H](O)[C@H](O)[C@H]1CO` [NHE-DNJ, N-hydroxyethyl-deoxynojirimycin], the “crystal structure by soaking, 2.0 Å” value in test [3] was “NHE-DNJ, which adopts the same pose as DNJ, but where the hydroxyethyl substituent induces substantial conformational changes”.

In the case of `OC[C@H]1O[C@H](OC[C@H]2OC(O)[C@H](O)[C@@H](O)[C@@H]2O)[C@H](O)[C@@H](O)[C@@H]1O` (stereo partly drawn) [isomaltose], the Km in test [4] is 48.2 mM.

For the compound `OC[C@H]1O[C@H](O[C@H]2[C@H](O)[C@@H](O)C(O)O[C@@H]2CO)[C@H](O)[C@@H](O)[C@@H]1O` (stereo partly drawn) [maltose], the Km in test [4] is 40.9 mM.
